23 compounds from ChEMBL document CHEMBL4043214, “Design, synthesis, and SAR study of 3-(benzo[d][1,3]dioxol-5-yl)-N-benzylpropanamide as novel potent synergists against fluconazole-resistant Candida albicans” (2017) can be followed below.

Usually MIC80 stands for an inhibitory concentration at the 80% level, which refers to growth in some studies and to a panel of isolates in others.

In brackets after ≈: the same amount, converted by molar mass. Where only a bound is given, the exact number is not on record here.

Common to all, as to type: functional
Test [1] relates to Candida albicans. The experiment in a line: Anti-fungal activity against fluconazole-resistant Candida albicans isolate 103 by microbroth dilution method. Background: Broth dilution looks for growth in wells or tubes with falling amounts of substance.
The test system of test [2] is Candida albicans. The experiment in a line: Potentiation of fluconazole-induced anti-fungal activity against fluconazole-resistant Candida albicans isolate 100 by two-fold dilution method.
Test [3] deals with Candida albicans. Put plainly: Synergistic anti-fungal activity against fluconazole-resistant Candida albicans isolate 103 in presence of fluconazole by two-fold dilution method.
For test [4], the system named is Candida albicans. The experiment in a line: Synergistic anti-fungal activity against fluconazole-resistant Candida albicans isolate 100 in presence of fluconazole by two-fold dilution method.
Test [5] deals with Candida albicans. The experiment in a line: Anti-fungal activity against fluconazole-resistant Candida albicans isolate 100 by microbroth dilution method.
In test [6] the test system is Candida albicans. The experiment in a line: Potentiation of fluconazole-induced anti-fungal activity against fluconazole-resistant Candida albicans isolate 103 by two-fold dilution method.

With `O=C(CCc1ccc2c(c1)OCO2)NCc1ccccc1-c1ccc(F)cc1`, the MIC80 was > 64 µg/mL with Candida albicans [1], 0.5 µg/mL with Candida albicans [3], 0.5 µg/mL in the test with Candida albicans [4] and > 64 µg/mL with Candida albicans [5]. Moreover, the “fractional inhibitory concentration index (FICI)” value with Candida albicans [2] and in the test with Candida albicans [6] was 0.066 in each case.

On to `O=C(CCc1ccc2c(c1)OCO2)NCc1ccc(-c2cccc(F)c2)cc1`, for which the MIC80 was > 64 µg/mL in the test on Candida albicans [1], 0.25 µg/mL in the test with Candida albicans [3], 0.25 µg/mL in the test with Candida albicans [4] and > 64 µg/mL against Candida albicans [5]. The “fractional inhibitory concentration index (FICI)” value in the test with Candida albicans [2] and in the test with Candida albicans [6] was 0.064 in each case.

Turning to `Cc1cccc(-c2ccc(CNC(=O)CCc3ccc4c(c3)OCO4)cc2)c1`, the MIC80 in the test with Candida albicans [1] is > 64 µg/mL; in the test with Candida albicans [3], 1 µg/mL; with Candida albicans [4], 0.5 µg/mL; against Candida albicans [5] it was > 64 µg/mL. Also, the “fractional inhibitory concentration index (FICI)” value with Candida albicans [2] is listed as 0.066; in the test with Candida albicans [6] it was 0.07.

With `O=C(CCc1ccc2c(c1)OCO2)NCc1ccc(Br)cc1`, the MIC80 was > 64 µg/mL against Candida albicans [1], 1 µg/mL with Candida albicans [3], 0.5 µg/mL in the test with Candida albicans [4] and > 64 µg/mL in the test with Candida albicans [5]. The “fractional inhibitory concentration index (FICI)” value with Candida albicans [2] is 0.066; in the test on Candida albicans [6] it was 0.07.

Take `O=C(CCc1ccc2c(c1)OCO2)NCc1ccc(-c2ccc(F)cc2F)cc1`: the MIC80 in the test on Candida albicans [1] is > 64 µg/mL; in the test on Candida albicans [3], 0.125 µg/mL; in the test with Candida albicans [4], 0.063 µg/mL; against Candida albicans [5] it was > 64 µg/mL. For the same compound, the “fractional inhibitory concentration index (FICI)” value in the test on Candida albicans [2] and with Candida albicans [6] was 0.063 throughout.

On to `O=C(CCc1ccc2c(c1)OCO2)NCc1ccc(-c2cccs2)cc1`, for which the MIC80 is > 64 µg/mL against Candida albicans [1], 0.125 µg/mL with Candida albicans [3], 0.063 µg/mL with Candida albicans [4] and > 64 µg/mL in the test on Candida albicans [5]. Besides, the “fractional inhibitory concentration index (FICI)” value with Candida albicans [2] and in the test on Candida albicans [6] was 0.063 each time.

As to `O=C(CCc1ccc2c(c1)OCO2)NCc1cccc(-c2ccc(F)cc2)c1`, the MIC80 was > 64 µg/mL with Candida albicans [1], 1 µg/mL in the test with Candida albicans [3], 0.5 µg/mL in the test on Candida albicans [4] and > 64 µg/mL with Candida albicans [5]. The entries for the “fractional inhibitory concentration index (FICI)” value in the test on Candida albicans [2] and in the test on Candida albicans [6] were 0.066 and 0.07, respectively.

As for `O=C(Cc1ccccc1F)NCCc1ccc2c(c1)OCO2`, the MIC80 against Candida albicans [1] was > 64 µg/mL; in the test with Candida albicans [3] it was 1 µg/mL; in the test on Candida albicans [4], 1 µg/mL; with Candida albicans [5], > 64 µg/mL. Besides, the “fractional inhibitory concentration index (FICI)” value with Candida albicans [2] and with Candida albicans [6] was 0.07 in each case.

For the compound `Cc1ccccc1CNC(=O)CCc1ccc2c(c1)OCO2`, the MIC80 was > 64 µg/mL with Candida albicans [1], 0.5 µg/mL in the test on Candida albicans [3], 0.25 µg/mL in the test with Candida albicans [4] and > 64 µg/mL in the test with Candida albicans [5]. Besides, the “fractional inhibitory concentration index (FICI)” value with Candida albicans [2] is reported as 0.064; in the test with Candida albicans [6], 0.066.

Take `N#Cc1ccc(-c2ccc(CNC(=O)CCc3ccc4c(c3)OCO4)cc2)cc1`: the MIC80 in the test with Candida albicans [1] is > 64 µg/mL; in the test on Candida albicans [3], 8 µg/mL; in the test with Candida albicans [4], 8 µg/mL; in the test on Candida albicans [5], > 64 µg/mL. Moreover, the “fractional inhibitory concentration index (FICI)” value in the test on Candida albicans [2] and in the test with Candida albicans [6] was 0.125 each time.

For the compound `COc1ccc(-c2ccc(CNC(=O)CCc3ccc4c(c3)OCO4)cc2)cc1`, the MIC80 was > 64 µg/mL against Candida albicans [1], 0.5 µg/mL in the test with Candida albicans [3], 0.25 µg/mL in the test on Candida albicans [4] and > 64 µg/mL in the test with Candida albicans [5]. For the same compound, the “fractional inhibitory concentration index (FICI)” value in the test with Candida albicans [2] turned out to be 0.064; in the test with Candida albicans [6], 0.066.

As to `O=C(CCc1ccc2c(c1)OCO2)NCc1ccccc1F`, the MIC80 is > 64 µg/mL with Candida albicans [1], 0.5 µg/mL with Candida albicans [3], 0.5 µg/mL in the test with Candida albicans [4] and > 64 µg/mL against Candida albicans [5]. Further, the “fractional inhibitory concentration index (FICI)” value with Candida albicans [2] and in the test on Candida albicans [6] was 0.066 in each case.

With `O=C(CCc1ccc2c(c1)OCO2)NCc1ccc(-c2ccc(Cl)cc2)cc1`, the MIC80 against Candida albicans [1] was > 64 µg/mL; with Candida albicans [3], 0.5 µg/mL; in the test with Candida albicans [4], 0.5 µg/mL; against Candida albicans [5], > 64 µg/mL. For the same compound, the “fractional inhibitory concentration index (FICI)” value in the test on Candida albicans [2] and with Candida albicans [6] was 0.066 each time.

Turning to `O=C(CCc1ccc2c(c1)OCO2)NCc1ccc(-c2ccco2)cc1`, the MIC80 was > 64 µg/mL in the test on Candida albicans [1], 4 µg/mL in the test with Candida albicans [3], 2 µg/mL in the test with Candida albicans [4] and > 64 µg/mL in the test on Candida albicans [5]. The “fractional inhibitory concentration index (FICI)” value turned out to be 0.078 in the test on Candida albicans [2] and 0.094 with Candida albicans [6].

Consider `O=C(CCc1ccc2c(c1)OCO2)NCc1cccc(Br)c1`, for which the MIC80 in the test with Candida albicans [1] is > 64 µg/mL; in the test with Candida albicans [3] it was 2 µg/mL; with Candida albicans [4], 2 µg/mL; against Candida albicans [5], > 64 µg/mL. Moreover, the “fractional inhibitory concentration index (FICI)” value in the test with Candida albicans [2] and in the test on Candida albicans [6] was 0.078 each time.

On to `O=C(CCc1ccc2c(c1)OCO2)NCc1ccc(-c2ccsc2)cc1`, for which the MIC80 is > 64 µg/mL with Candida albicans [1], 0.25 µg/mL with Candida albicans [3], 0.25 µg/mL in the test on Candida albicans [4] and > 64 µg/mL in the test on Candida albicans [5]. For the same compound, the “fractional inhibitory concentration index (FICI)” value with Candida albicans [2] and in the test on Candida albicans [6] was 0.064 each time.

Turning to `Cc1ccc(-c2ccccc2CNC(=O)CCc2ccc3c(c2)OCO3)cc1`, the MIC80 was > 64 µg/mL in the test on Candida albicans [1], 0.25 µg/mL with Candida albicans [3], 0.25 µg/mL with Candida albicans [4] and > 64 µg/mL in the test on Candida albicans [5]. In addition, the “fractional inhibitory concentration index (FICI)” value with Candida albicans [2] and with Candida albicans [6] was 0.064 in each case.

`O=C(CCc1ccc2c(c1)OCO2)NCc1cccc(F)c1`: the MIC80 in the test with Candida albicans [1] was > 64 µg/mL; in the test on Candida albicans [3], 1 µg/mL; in the test with Candida albicans [4], 1 µg/mL; in the test on Candida albicans [5] it was > 64 µg/mL. For the same compound, the “fractional inhibitory concentration index (FICI)” value in the test on Candida albicans [2] and with Candida albicans [6] was 0.07 throughout.

Take `O=C(CCc1ccc2c(c1)OCO2)NCc1ccc(-c2ccc(C(F)(F)F)cc2)cc1`: the MIC80 with Candida albicans [1] was > 64 µg/mL; with Candida albicans [3], 4 µg/mL; with Candida albicans [4] it was 4 µg/mL; against Candida albicans [5], > 64 µg/mL. In addition, the “fractional inhibitory concentration index (FICI)” value in the test with Candida albicans [2] and in the test with Candida albicans [6] was 0.094 in each case.

On to `Cc1ccc(-c2cccc(CNC(=O)CCc3ccc4c(c3)OCO4)c2)cc1`, for which the MIC80 was > 64 µg/mL in the test with Candida albicans [1], 2 µg/mL with Candida albicans [3], 1 µg/mL in the test on Candida albicans [4] and > 64 µg/mL against Candida albicans [5]. The “fractional inhibitory concentration index (FICI)” value with Candida albicans [2] came to 0.07; with Candida albicans [6], 0.078.

With `O=C(CCc1ccc2c(c1)OCO2)NCc1ccccc1Br`, the MIC80 was > 64 µg/mL against Candida albicans [1], 1 µg/mL in the test with Candida albicans [3], 1 µg/mL in the test with Candida albicans [4] and > 64 µg/mL in the test with Candida albicans [5]. In addition, the “fractional inhibitory concentration index (FICI)” value in the test on Candida albicans [2] and in the test on Candida albicans [6] was 0.07 in each case.

`O=C(CCc1ccc2c(c1)OCO2)NCc1ccc(-c2ccncc2)cc1`: the MIC80 in the test with Candida albicans [1] is > 64 µg/mL; with Candida albicans [3] it was 8 µg/mL; with Candida albicans [4] it was 8 µg/mL; in the test with Candida albicans [5] it was > 64 µg/mL. In addition, the “fractional inhibitory concentration index (FICI)” value in the test on Candida albicans [2] and in the test with Candida albicans [6] was 0.125 throughout.

`OC(Cn1cncn1)(Cn1cncn1)c1ccc(F)cc1F` [FLUCONAZOLE]: the MIC80 against Candida albicans [1] and against Candida albicans [5] was 128 µg/mL (≈ 418 µM) in each case.
